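Five concentrations, 48 hours, 96-well plates. The concentration for 50% growth inhibition is given as GI50. At the TGI there is no net growth.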
Experiments:
Experiment in all cases: growth of human tumour cells (NCI), 48 h
OVCAR-3 ovarian = test system: OVCAR-3 ovarian
OVCAR-5 ovarian = test system: OVCAR-5 ovarian
U251 CNS = test system: U251 CNS
OVCAR-8 ovarian = test system: OVCAR-8 ovarian
HOP-62 NSCLC = test system: HOP-62 NSCLC
MOLT-4 leukemia = test system: MOLT-4 leukemia
M14 melanoma = test system: M14 melanoma
COLO 205 colon = test system: COLO 205 colon
SNB-75 CNS = test system: SNB-75 CNS

SMILES | TGI (OVCAR-3 ovarian) | TGI (OVCAR-5 ovarian) | TGI (U251 CNS) | TGI (OVCAR-8 ovarian) | TGI (HOP-62 NSCLC) | TGI (MOLT-4 leukemia) | TGI (M14 melanoma) | GI50 (OVCAR-3 ovarian) | GI50 (OVCAR-5 ovarian) | GI50 (U251 CNS) | GI50 (OVCAR-8 ovarian) | GI50 (HOP-62 NSCLC) | GI50 (COLO 205 colon) | TGI (COLO 205 colon) | GI50 (MOLT-4 leukemia) | GI50 (M14 melanoma) | TGI (SNB-75 CNS) | GI50 (SNB-75 CNS)
CC(=O)/C(=C\C1=CCCO1)C(=O)Nc1ccccc1C | > 100 µM | > 100 µM | > 100 µM | > 100 µM | > 100 µM | > 100 µM | > 100 µM |  |  |  |  |  |  |  |  |  |  | 
CC/C(=C(/CC)c1ccc(O)cc1)c1ccc([O-])cc1.CC/C(=C(/CC)c1ccc(O)cc1)c1ccc([O-])cc1.O=C([CH-]C(=O)c1ccccc1)c1ccccc1.O=C([CH-]C(=O)c1ccccc1)c1ccccc1.[Ti+4] | > 100 µM | 46.7 µM | 26.9 µM | 46.3 µM | 28.3 µM | > 100 µM |  | 27.7 µM | 23.9 µM | 13.9 µM | 21.5 µM | 14.7 µM | 33.8 µM | > 100 µM | 4.93 µM | 8.34 µM |  | 
O=C1NC2CCC(C2)C1c1ccccc1 (stereo not given) | > 100 µM | > 100 µM | > 100 µM | > 100 µM |  | > 100 µM | > 100 µM |  |  |  |  |  |  | > 100 µM |  |  | > 100 µM | 
COC(=O)C12CC(c3ccccc31)C1C(=O)OC(=O)C12 (stereo not given) | > 100 µM | > 100 µM | > 100 µM | > 100 µM | > 100 µM | > 100 µM | > 100 µM |  |  |  |  |  |  | > 100 µM |  |  | > 100 µM | 
O=C1NC(=S)NC(=O)C1=Cc1cccc2cc3ccccc3cc12 | 3.42 µM | 5.21 µM | 3.36 µM | 3.9 µM | 4.16 µM | 5.24 µM | 4.89 µM |  |  |  |  |  |  | 3.7 µM |  |  | 3.7 µM | 
CCN(CC)CCNC(=O)c1nn(C)c(=S)[nH]c1=S | > 100 µM | > 100 µM | > 100 µM | > 100 µM | > 100 µM | > 100 µM | > 100 µM |  |  |  |  |  |  | > 100 µM |  |  | > 100 µM | 
Nc1nc(=S)[nH]c(C(=O)Nc2ccc(Cl)c(Cl)c2)c1-c1ccc(Cl)cc1 | > 100 µM | > 100 µM | > 100 µM | > 100 µM | > 100 µM | > 100 µM | > 100 µM |  |  |  |  |  |  | > 100 µM |  |  | > 100 µM | 
Cc1ccc(NC(=O)CCC/C(CC(=O)c2ccc(Br)cc2)=N/NC(=O)CC#N)cc1 | > 100 µM | > 100 µM | > 100 µM | > 100 µM | > 100 µM | > 100 µM | > 100 µM |  |  |  |  |  |  | > 100 µM |  |  | > 100 µM | 
C[C@]12CC[C@H](OCCC#N)CC1=CC[C@@H]1C2CC[C@]2(C)/C(=N/OCCC#N)CCC12 (stereo not given in full) | > 100 µM | > 100 µM | > 100 µM | > 100 µM | > 100 µM | > 100 µM | > 100 µM |  |  |  |  |  |  | > 100 µM |  |  | > 78.9 µM | 
Cc1cccc(C)c1NC(=O)CCc1nnc2s/c(=C\c3ccc(Cl)cc3)c(=O)n12 | > 100 µM | > 100 µM | > 100 µM | > 100 µM | > 100 µM | > 100 µM | > 100 µM |  |  |  |  |  |  | > 100 µM |  |  | > 100 µM | 
CN(C)CC/C(=N\Nc1ccccc1)c1ccccc1 | 27.7 µM | 30.9 µM | > 100 µM |  | 31 µM | > 100 µM | 4.73 µM |  |  |  |  |  |  | 33.5 µM |  |  |  | 
O=C1c2ccccc2C2(O)NC(=S)N(c3ccccc3)C12O (stereo not given) | > 100 µM | > 100 µM | > 100 µM | > 100 µM |  | > 100 µM | > 100 µM |  |  |  |  |  |  | > 100 µM |  |  | > 100 µM | 
CCC[CH2][Sn]([CH2]CCC)([O]C(=O)C(N)CSC)[O]C(=O)C(N)CSC (stereo not given) | 25.4 µM | 35.6 µM | 25.1 µM | 38.1 µM |  | 7.65 µM | 16.2 µM | 12.5 µM | 15.7 µM | 11.3 µM | 12.6 µM |  | 6.5 µM | 19.9 µM | 2.42 µM | 10.5 µM | 31.6 µM | 10 µM
COc1cc(C(=O)C/C(CCC(=O)Nc2ccc(Cl)cc2C)=N/NC(=O)C(N)=O)ccc1O | > 100 µM | > 100 µM | > 100 µM | > 100 µM | > 100 µM | > 100 µM | > 100 µM |  |  |  |  |  |  | > 100 µM |  |  |  | 
CC(=O)N/C(=C\c1cccc([N+](=O)[O-])c1)c1nc2c3c(ccc2[nH]1)C(=O)c1ccccc1C3=O | > 100 µM | > 100 µM | > 100 µM | > 100 µM | > 100 µM | > 62.9 µM | > 100 µM |  |  |  |  |  |  | > 100 µM |  |  | > 100 µM | 
COc1ccc2cc3[n+](cc2c1OC)CCc1cc(O)c(O)cc1-3 | > 100 µM | > 100 µM | > 100 µM | > 100 µM | > 100 µM | > 100 µM | > 100 µM |  |  |  |  |  |  | > 100 µM |  |  | > 100 µM | 

SMILES | TGI (OVCAR-3 ovarian) | TGI (OVCAR-5 ovarian) | TGI (U251 CNS) | TGI (OVCAR-8 ovarian) | TGI (HOP-62 NSCLC) | TGI (MOLT-4 leukemia) | TGI (M14 melanoma) | GI50 (OVCAR-3 ovarian) | GI50 (OVCAR-5 ovarian) | GI50 (U251 CNS) | GI50 (OVCAR-8 ovarian) | GI50 (HOP-62 NSCLC) | GI50 (COLO 205 colon) | TGI (COLO 205 colon) | GI50 (MOLT-4 leukemia) | GI50 (M14 melanoma) | TGI (SNB-75 CNS) | GI50 (SNB-75 CNS)
Cn1nc(-c2ccccc2)nc1[N+](=O)[O-] | > 10 µM | > 10 µM | > 10 µM | > 10 µM | > 10 µM | > 10 µM | > 10 µM |  |  |  |  |  |  | > 10 µM |  |  | > 10 µM | 
Cc1nc2cc(N)c(F)cc2[nH]1 |  | > 100 µM | > 100 µM | > 100 µM | > 100 µM | > 100 µM |  |  |  |  |  |  |  | > 100 µM |  |  |  | 
CCCCc1ccc(-n2c3nc(=O)n(C)c(=O)c-3nc3ccccc32)cc1 | 10.1 µM | 32 µM | 23.5 µM | 32.1 µM | 32.6 µM | 41.9 µM | 21.7 µM |  |  |  |  |  |  | 13 µM |  |  | 30.3 µM | 
NC1CCCCC1N.O=S(=O)([O-])CCCN1CCOCC1.O=S(=O)([O-])CCCN1CCOCC1.[Pt+4] | > 100 µM | > 100 µM | > 100 µM | > 100 µM | > 100 µM | 14.1 µM | > 100 µM | 19.3 µM | 26 µM | 13.7 µM | 10.6 µM | > 100 µM | 10.7 µM | 42.8 µM | 2.33 µM | 14.4 µM | > 100 µM | > 100 µM
CCCCCCCCCCC(O)C1CCC(C(O)CCC(O)C2CCC(CCCCCCC[C@H](O)CC3=C[C@@H](C)OC3=O)O2)O1 (stereo not given in full) | 45 µM | > 100 µM | > 100 µM | 34 µM | > 100 µM | > 100 µM | > 100 µM |  |  |  | 7.39 µM |  |  | > 100 µM |  |  | 25.4 µM | 2.92 µM
COC1OC(C)C(O)CC1OS(=O)(=O)c1ccc(C)cc1 (stereo not given) | > 100 µM | > 100 µM | > 100 µM | > 100 µM |  | > 100 µM | > 100 µM |  |  |  |  |  |  | > 100 µM |  |  | > 100 µM | 
CCOC(=O)C1=C(Nc2ccc(Cl)cc2Cl)OC/C1=N\NS(=O)(=O)c1ccc(C)cc1 | > 100 µM | > 100 µM | > 100 µM | > 100 µM | > 100 µM | > 100 µM | > 100 µM |  |  |  |  |  |  | > 100 µM |  |  | > 100 µM | 
CCCC(C)C[C@@H](C)CC(C)/C=C(\C)c1oc(=O)c(C)c(O)c1C (stereo not given in full) (tested in a mixture with another compound) | 18.9 µM | 17.5 µM | 27.6 µM | 39.7 µM | 36.5 µM |  | 29.1 µM |  |  |  |  |  |  | 46 µM |  |  | 28.3 µM | 
Cc1cc(C)nc(NS(=O)(=O)c2ccc(Nc3c4ccc(Cl)cc4nc4c(C(=O)Nc5ccc(S(=O)(=O)N=C(N)N)cc5)cccc34)cc2)n1 | > 100 µM | > 100 µM | > 100 µM | > 100 µM | > 100 µM | > 100 µM | > 100 µM |  |  |  |  |  |  |  |  |  | > 100 µM | 
O=C(Nc1cc[c]([Sb](=[O])([OH])[OH])cc1)c1ccccc1 | > 100 µM | > 100 µM | > 100 µM | > 100 µM | > 100 µM | > 100 µM | > 100 µM | > 100 µM | > 100 µM | > 100 µM | > 100 µM | > 100 µM |  |  | > 100 µM | > 100 µM | > 100 µM | > 100 µM
CCc1nc(N)nc(C(=O)NCCNC(=O)c2nc(N)nc(CC)c2C)c1C | > 100 µM | > 100 µM | > 100 µM | > 100 µM | > 100 µM | > 100 µM | > 100 µM |  |  |  |  |  |  |  |  |  | > 100 µM | 
Nc1ncn(C2C=C(CO)C(O)C2O)c(=O)n1 (stereo not given) | > 100 µM |  | > 100 µM | > 100 µM | > 100 µM | > 100 µM | > 100 µM |  |  |  |  |  |  | 74.2 µM |  |  | > 100 µM | 
COC(=O)C(=O)C(C#N)c1ccc(CC#N)cc1 (stereo not given) | > 100 µM |  | > 100 µM |  |  | > 100 µM | > 100 µM |  |  |  |  |  |  |  |  |  | > 100 µM | 
O=c1[nH]c2c3ccccc3ccc2c2cc3c(cc12)OCO3 | > 100 µM | > 100 µM | > 100 µM | > 100 µM | > 100 µM | > 100 µM | > 100 µM |  |  |  |  |  |  | > 100 µM |  |  | > 100 µM | 
CCn1c(O)c(C=N)c(=O)n(CC)c1=O | > 100 µM | > 100 µM |  | > 100 µM | > 100 µM | > 100 µM | > 100 µM |  |  |  |  |  |  | > 100 µM |  |  | > 100 µM | 

Source: PubChem BioAssay (NCI)
